Assay results: patent publication US20050233973A1, “Tri-peptides for antidepressant applications” (priority 1997, published 2005)
pIC50: −log10 of the molar value. Read-outs that look alike come from different tables or passages of the source. Non-standard residues stand in square brackets, D forms with d. Residues, ends and D or L forms follow the SMILES beside them. pGlu = O=C1CC[C@@H](C(=O)O)N1

Legend:
[1] = biological target: TRH receptor-1 (TRHR-1); assay: competition with 2 nM [^3H]TRH on HEK293 cells expressing TRHR-1
[2] = biological target: TRH receptor-2 (TRHR-2); assay: competition with 2 nM [^3H]TRH on HEK293 cells expressing TRHR-2
[3] = tested on: control HEK293 cells; assay: Intracellular calcium response (fura2), non-transfected control cells; assay type: cell-based; conditions: Ca2+-free buffer
Description: The ability of peptides of the formula pGlu-[…] to stimulate an intracellular calcium response in transfected HEK293 of Example 5 was evaluated, to determine whether the peptides behave as agonists. […] The coverslip was then rinsed and placed in a Sykes-Moore chamber covered with 1 mL Ca^2+ and Mg^2+ free HBSS. Imaging was performed on a Nikon inverted microscope with a DAGE CCD72 camera and […] intensifier system. Cells were alternately excited at 340 and 380 nm and emission was measured at 490 nm; 340/380 ratios were obtained every 1.2 seconds and analyzed using Image-1 software from Universal Imaging Corporation. […] Peak responses from between 33 and 120 individual cells were averaged, and responses to TRH were measured with each set of cells as a standard. Most of the peptides caused a small increase in intracellular Ca^2+ when added to control HEK293 cells bathed in Ca^2+-containing medium, but with the exception of the R^2=Leu peptide, none of them evoked an appreciable Ca^2+ response in Ca^2+-free HBSS, which was used for all experiments.

[4] = tested on: pentobarbital-anesthetized rats; assay type: in vivo, male Wistar rats
Description: Twenty minutes after loss of the righting reflex, 10 μL of either sterile saline or peptide of this invention (1 or 10 μg/10 μL sterile saline) was administered by intracisternal (IC) injection. The time from IC injection to recovery of the righting reflex, as measured three times within 10 seconds, was recorded.

[5] = tested on: 465B12 antibody (raised to TRH); conditions: tracer 125I-TRH; assay standard = 1.00
[6] = tested on: CR-V3-B53 antibody (raised to TRH); conditions: tracer 125I-TRH; assay standard = 1.00
[7] = tested on: EEP (R^2=Glu) antibody (580B6); conditions: tracer 125I-TRH; assay standard = 1.00
[8] = biological target: T1, TRH receptor-1 (TRHR-1) (Mus musculus, UniProt P21761); assay: [3H]TRH competition binding, HEK293 cells expressing TRHR-1
T1 sequence (P21761 1-393): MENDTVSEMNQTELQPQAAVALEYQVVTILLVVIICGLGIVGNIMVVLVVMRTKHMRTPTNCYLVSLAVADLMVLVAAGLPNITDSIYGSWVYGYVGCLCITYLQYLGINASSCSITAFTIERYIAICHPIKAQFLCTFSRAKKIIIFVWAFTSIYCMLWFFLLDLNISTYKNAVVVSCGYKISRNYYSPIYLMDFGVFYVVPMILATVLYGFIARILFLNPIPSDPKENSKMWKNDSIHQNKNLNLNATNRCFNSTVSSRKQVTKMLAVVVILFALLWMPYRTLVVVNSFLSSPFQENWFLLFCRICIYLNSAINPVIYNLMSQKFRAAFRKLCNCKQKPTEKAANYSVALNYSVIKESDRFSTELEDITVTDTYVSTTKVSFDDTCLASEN

[9] = biological target: T2, TRH receptor-2 (TRHR-2) (Rattus norvegicus, UniProt A6IZR3); assay: [3H]TRH competition binding, HEK293 cells expressing TRHR-2
T2 sequence (A6IZR3 1-352): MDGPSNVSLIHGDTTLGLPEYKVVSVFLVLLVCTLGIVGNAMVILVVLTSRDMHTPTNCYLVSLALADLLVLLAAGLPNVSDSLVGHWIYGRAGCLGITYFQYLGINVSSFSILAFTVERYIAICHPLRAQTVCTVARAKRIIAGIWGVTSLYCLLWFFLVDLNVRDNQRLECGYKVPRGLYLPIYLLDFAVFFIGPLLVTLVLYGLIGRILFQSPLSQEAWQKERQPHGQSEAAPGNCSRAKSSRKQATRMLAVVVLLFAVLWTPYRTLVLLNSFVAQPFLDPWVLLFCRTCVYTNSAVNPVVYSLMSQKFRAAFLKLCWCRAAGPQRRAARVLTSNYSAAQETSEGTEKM

[10] = 50 micrograms given at bedtime; reduced from 12; cited from earlier work
[11] = tested on: Porsolt forced swim animal model of depression; assay: Porsolt swim test; assay type: in vivo, rats; conditions: low-dose (0.05 mg/kg ip), three injections
Description: Total immobility time versus swim time was recorded. Both high-dose (0.5 mg/kg sc) and low-dose injections (0.05 mg/kg ip) were used.

[12] = Serum T3 and T4 levels in Porsolt test animals; assay type: in vivo, rats; conditions: animals of the Porsolt test
Description: A Porsolt swim test with rats was used to examine the antidepressant effects of peptides where R^2=Glu or R^2=Phe, as set forth in Lloyd, R. L. et al., Pharamcology, Biochemistry and Behavior, 70:15-22 (2001), incorporated herein by reference. […] No effect of the blocking variable or interaction of the blocking variable with treatment was found.
Using the animal models of Example 11, T3 (triiodothyronine) and T4 (thyroxine) levels were tested. Serum T3 was determined by […], using fluorescence polarization of a fixed concentration of a fluorescent analog of T3 as provided in the Abbott IMX System. T4 was also determined by radioimmunoassay. With EEP, no changes in T3 were observed. […] With ELP (where R^2 is Leu) and EFP there was an increase in T3, but this was not correlated to swim scores, with ELP not producing a behavioral effect, and EFP producing a marginal behavioral effect.

[13] = Binding capacity / concentration in brain areas

Molecule: [pGlu]-Val-Pro-NH2
- IC50 [1]: > 100 µg/mL
- IC50 [2]: > 100 µg/mL

Molecule: NC(=O)[C@@H]1CCCN1C(=O)[C@H](Cc1cnc[nH]1)NC(=O)[C@@H]1CCC(=O)N1 [TRH, pGlu-His-Pro-NH2, reference compound]
- Ca2+ response [3]: no response
- reduction in pentobarbitol-induced sleep time (analeptic effect) ([4]; IC injection of 1 μg): did not result in a significant reduction
- reduction in pentobarbitol-induced sleep time (analeptic effect) ([4]; IC injection of 10 μg): had an analeptic effect
- "wet dog" shaking while still anesthetized ([4]; rat, in vivo): frequently accompanied by “wet dog” shaking
- relative potency for displacement of assay tracer [5]: 1.00
- relative potency for displacement of assay tracer [6]: 1.00
- relative potency for displacement of assay tracer [7]: 2.91
- pIC50 [8]: 7.63
- pIC50 [9]: 7.61

Molecule: C[C@@H](O)[C@H](NC(=O)[C@@H]1CCC(=O)N1)C(=O)N1CCC[C@H]1C(N)=O [Thr, reference compound] ([pGlu]-Thr-Pro-NH2)
- pIC50 [8]: < 3.51
- pIC50 [9]: < 3.51

Molecule: NC(=O)[C@@H]1CCCN1C(=O)[C@H](CO)NC(=O)[C@@H]1CCC(=O)N1 [Ser, reference compound] ([pGlu]-Ser-Pro-NH2)
- pIC50 [8]: 4.16
- pIC50 [9]: 4.40

Molecule: [pGlu]-Tyr-Pro-NH2
- IC50 [1]: > 100 µg/mL
- IC50 [2]: > 100 µg/mL

Molecule: N=C(N)NCCC[C@H](NC(=O)[C@@H]1CCC(=O)N1)C(=O)N1CCC[C@H]1C(N)=O [Arg, reference compound] ([pGlu]-Arg-Pro-NH2)
- pIC50 [8]: < 3.58
- pIC50 [9]: < 3.58

Molecule: [pGlu]-Ser-Pro-NH2
- IC50 [1]: 21.7 µg/mL
- IC50 [2]: 12.3 µg/mL

Molecule: N[C@@H](Cc1cc(I)c(Oc2ccc(O)c(I)c2)c(I)c1)C(=O)O [T3, liothyronine]
- required numbers of ECTs [10]: 7

Molecule: [pGlu]-Gln-Pro-NH2
- IC50 [1]: 9.8 µg/mL
- IC50 [2]: 7.57 µg/mL

Molecule: [pGlu]-Lys-Pro-NH2 [EKP]
- antidepressant effect compared to saline (total immobility time) [11]: effective
- increase in T3 [12]: 48%
- increase in T4 [12]: 57%
- binding capacity in limbic and motor areas of the brain compared to the other TRH analogs [13]: significant binding capacity

Molecule: [pGlu]-Thr-Pro-NH2
- IC50 [1]: > 100 µg/mL
- IC50 [2]: > 100 µg/mL
